Reference: patent US7935819B2, “Cyclic urea derivatives, preparation thereof and pharmaceutical use thereof as kinase inhibitors” (Aventis Pharma S.A., priority 2006, dated 2011)
pIC50: −log10 of the molar value. Like-named read-outs stand apart in the source and are kept apart here.

Assays:
[1] = biological target: MEF-IGF1R cells (stable clone transfected with hIGF-1R) (Homo sapiens, UniProt P08069); assay: Proliferation/viability of MEF-IGF1R (Test C), [14C]thymidine incorporation; assay type: cell-based; conditions: rhIGF1 100 ng/mL, 72 hours, read-out: Test C IC50
Experimental: C) Measurement of the Proliferation/Viability of MEF-IGF1R
Cell culture: the MEF-IGF1R cells (stable clone of cells transfected with the receptor hIGF-1R) are cultured at 37° C. under 5% CO2 in EMEM medium containing 10% FCS.
Test procedure: the cells are seeded at 5000 cells per well in 96-well Cytostar plates (Amersham) with 0.2 mL of EMEM culture medium at 37° C. for 18 hours. The cells are then washed twice with EMEM medium and left to culture without serum for 24 hours. The compounds are then added at various concentrations in the presence of rhIGF1 (100 ng/mL) and 0.1 μCi of Thymidine [^14C] (specific activity ˜50 mCi/mmol) to give 0.2 mL of volume per well. After incubation for 72 hours in the presence of the compound, at 37° C. under 5% CO2, the incorporation of Thymidine [^14C] is measured by counting the radioactivity on a Microbeta trilux counter (Perkin-Elmer). The IC50 is determined from 10 increasing concentrations of the compound.
(§1) (i) The tests are performed in duplicate and the mean of the two tests is calculated.
(§2) (ii) The value of the signal of the maximum response is calculated from the positive control: cells stimulated with IGF1 without compound.
(§3) (iii) Value of the signal of the minimum response is calculated from the negative control: cells not stimulated with IGF1 without compound.
(§4) (iv) By using these values as maximum (100%) and minimum (0%), respectively, the data were normalized so as to give a percentage of the maximum response.
(§5) (v) A curve of dose response is plotted and the IC50 (the concentration of which the compound induces a 50% decrease in the signal) of the compound is calculated by non-linear regression analysis.

[2] = biological target: T1, IGF-1R (human cytoplasmic domain fused with GST) (Homo sapiens, UniProt P08069); assay: Kinase IGF-1R test (Test A): inhibition of autophosphorylation of the enzyme, HTRF; assay type: biochemical; conditions: 120 μM ATP
T1 construct: The human cytoplasmic domain of IGF-1R was cloned by fusion with glutathione S-transferase (GST); made in house; host or cells: SF21 insect cells (baculovirus, pFastBac-GST)
Experimental: A) Experimental Protocol for the Kinase IGF-1R Test:
The inhibitory activity of the compounds on IGF1R is determined by measuring the inhibition of autophosphorylation of the enzyme using a time-resolved fluorescence test (HTRF). The human cytoplasmic domain of IGF-1R was cloned by fusion with glutathione S-transferase (GST) in the baculovirus expression vector pFastBac-GST. The protein is expressed in the SF21 cells and purified to about 80% homogeneity. For the enzymatic test, the test compound at 10 mM dissolved in DMSO is diluted in 1/3 steps in a 50 mM Hepes, pH 7.5, 5 mM MnCl2, 50 mM NaCl, 3% Glycerol, 0.025% Tween 20 buffer. To measure the inhibition, the successive dilutions of the compound are preincubated for 30 minutes and 90 minutes in the presence of 5 nM of enzyme, the final DMSO concentration not exceeding 1%. The enzymatic reaction is initiated to have a final ATP concentration of 120 μM, and is stopped after 5 minutes by addition of 100 mM Hepes, pH 7.0 buffer containing 0.4 M of potassium fluoride, 133 mM EDTA, 0.1% BSA, the XL665-labelled antibody anti-GST and the anti-phosphotyrosine antibody conjugated to europium cryptate Eu—K (Cis-Bio Int.). The characteristics of the two fluorophores, XL-665 and Eu—K, are available in G. Mathis et al., Anticancer Research, 1997, 17, pages 3011-3014. The energy transfer between the excited europium cryptate to the acceptor XL665 is proportional to the degree of autophosphorylation of IGF-1R. The specific long-lasting signal of XL-665 is measured in a GENios Pro TECAN plate counter. The inhibition of autophosphorylation of IGF-1R at time 30 minutes and 90 minutes with the test compounds of the invention is calculated relative to a 1% in DMSO control, whose activity is measured in the absence of compound. The curve representing the percentage of inhibition as a function of the log of the concentration is established to determine the concentration corresponding to 50% inhibition (IC50).

IGF1R in MCF-7 cells = biological target: T2, IGF1R in MCF-7 cells (Homo sapiens, UniProt P08069); assay: Autophosphorylation of IGF-1R in MCF7 cells after stimulation with IGF-1 (Test B), ELISA; assay type: cell-based; conditions: compound added one hour before IGF1 stimulation (10 minutes)
T2 construct: endogenous in cells; host or cells: MCF-7 cells
Experimental: B) Measurement of the Autophosphorylation of IGF-1r in MCF7 Cells after Stimulation with IGF-1
Cell Culturing and Execution of the Test:
The autophosphorylation of IGF1R in the IGF1-induced cells is evaluated by means of an ELISA technique (Enzyme Linked ImmunoSorbent Assay). The MCF-7 are seeded at 60 000 cells per well in 6-well plates and incubated at 37° C., 5% CO2 in medium containing 10% serum. After one night in 10% serum, the cells are deprived of serum for 24 hours. The compounds are added to the medium one hour before stimulation with IGF1. After 10 minutes of stimulation with IGF1, the cells are lysed with a buffer (Hepes 50 mM pH 7.6, Triton X100 1%, orthovanadate 2 mM, protease inhibitor cocktail). The cell lysates are incubated on a 96-well plate precoated with an anti-IGF1R antibody, followed by incubation with an anti-phosphotyrosine antibody coupled to the enzyme peroxidase. The level of peroxidase activity (measured by OD with a luminescent substrate) reflects the phosphorylation status of the receptor.
as §1, §2, §3, §4, §5

[3] = preincubation with enzyme 30 minutes, read-out: Test A 30′ IC50
[4] = preincubation with enzyme 90 minutes, read-out: Test A 90′ IC50

T1 sequence (P08069 960-1367 limits assumed): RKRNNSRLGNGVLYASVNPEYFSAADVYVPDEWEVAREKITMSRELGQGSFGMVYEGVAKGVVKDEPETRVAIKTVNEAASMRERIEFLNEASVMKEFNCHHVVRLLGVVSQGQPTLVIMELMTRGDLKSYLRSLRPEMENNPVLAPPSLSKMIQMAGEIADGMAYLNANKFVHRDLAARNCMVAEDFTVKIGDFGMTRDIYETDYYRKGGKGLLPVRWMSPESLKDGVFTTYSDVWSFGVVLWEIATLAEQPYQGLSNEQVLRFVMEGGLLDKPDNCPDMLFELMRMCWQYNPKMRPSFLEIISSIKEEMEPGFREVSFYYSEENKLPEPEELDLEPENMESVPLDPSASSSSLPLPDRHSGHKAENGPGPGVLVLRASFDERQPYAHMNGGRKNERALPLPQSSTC
MEF-IGF1R cells (stable clone transfected with hIGF-1R), sequence (P08069 whole entry, change not shown): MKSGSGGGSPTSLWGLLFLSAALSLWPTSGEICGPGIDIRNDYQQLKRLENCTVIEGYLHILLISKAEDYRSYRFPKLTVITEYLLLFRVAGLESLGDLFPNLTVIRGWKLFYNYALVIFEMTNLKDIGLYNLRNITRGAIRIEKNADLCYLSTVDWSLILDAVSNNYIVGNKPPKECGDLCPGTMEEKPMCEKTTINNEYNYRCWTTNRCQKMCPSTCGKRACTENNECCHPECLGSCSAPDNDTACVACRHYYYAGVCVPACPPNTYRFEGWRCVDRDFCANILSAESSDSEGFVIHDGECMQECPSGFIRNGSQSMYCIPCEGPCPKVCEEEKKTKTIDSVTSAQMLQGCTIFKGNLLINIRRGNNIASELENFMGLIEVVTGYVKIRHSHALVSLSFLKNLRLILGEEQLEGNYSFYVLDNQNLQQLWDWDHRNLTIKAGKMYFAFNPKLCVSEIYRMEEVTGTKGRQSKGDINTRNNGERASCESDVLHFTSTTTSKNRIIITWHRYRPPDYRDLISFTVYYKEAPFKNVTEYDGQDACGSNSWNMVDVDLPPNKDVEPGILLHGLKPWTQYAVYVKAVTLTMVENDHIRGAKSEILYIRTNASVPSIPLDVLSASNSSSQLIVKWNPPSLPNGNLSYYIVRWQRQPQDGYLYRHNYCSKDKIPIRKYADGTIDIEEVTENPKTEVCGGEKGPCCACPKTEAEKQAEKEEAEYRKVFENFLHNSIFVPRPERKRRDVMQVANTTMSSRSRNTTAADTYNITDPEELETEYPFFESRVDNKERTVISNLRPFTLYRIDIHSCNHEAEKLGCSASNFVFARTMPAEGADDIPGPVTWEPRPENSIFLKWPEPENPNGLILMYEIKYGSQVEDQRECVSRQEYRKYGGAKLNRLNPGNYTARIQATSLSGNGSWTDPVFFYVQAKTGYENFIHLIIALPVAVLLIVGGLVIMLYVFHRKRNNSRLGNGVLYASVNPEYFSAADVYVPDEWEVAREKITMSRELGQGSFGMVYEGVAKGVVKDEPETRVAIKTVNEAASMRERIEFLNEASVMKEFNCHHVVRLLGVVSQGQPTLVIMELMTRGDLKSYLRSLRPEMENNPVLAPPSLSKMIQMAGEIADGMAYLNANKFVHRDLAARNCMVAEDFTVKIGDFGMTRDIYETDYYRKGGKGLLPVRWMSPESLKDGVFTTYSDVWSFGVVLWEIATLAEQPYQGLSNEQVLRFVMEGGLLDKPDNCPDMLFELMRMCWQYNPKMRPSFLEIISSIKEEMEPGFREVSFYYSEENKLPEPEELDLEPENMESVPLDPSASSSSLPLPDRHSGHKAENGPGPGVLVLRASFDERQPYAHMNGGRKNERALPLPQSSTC
T2 sequence (P08069 31-1367): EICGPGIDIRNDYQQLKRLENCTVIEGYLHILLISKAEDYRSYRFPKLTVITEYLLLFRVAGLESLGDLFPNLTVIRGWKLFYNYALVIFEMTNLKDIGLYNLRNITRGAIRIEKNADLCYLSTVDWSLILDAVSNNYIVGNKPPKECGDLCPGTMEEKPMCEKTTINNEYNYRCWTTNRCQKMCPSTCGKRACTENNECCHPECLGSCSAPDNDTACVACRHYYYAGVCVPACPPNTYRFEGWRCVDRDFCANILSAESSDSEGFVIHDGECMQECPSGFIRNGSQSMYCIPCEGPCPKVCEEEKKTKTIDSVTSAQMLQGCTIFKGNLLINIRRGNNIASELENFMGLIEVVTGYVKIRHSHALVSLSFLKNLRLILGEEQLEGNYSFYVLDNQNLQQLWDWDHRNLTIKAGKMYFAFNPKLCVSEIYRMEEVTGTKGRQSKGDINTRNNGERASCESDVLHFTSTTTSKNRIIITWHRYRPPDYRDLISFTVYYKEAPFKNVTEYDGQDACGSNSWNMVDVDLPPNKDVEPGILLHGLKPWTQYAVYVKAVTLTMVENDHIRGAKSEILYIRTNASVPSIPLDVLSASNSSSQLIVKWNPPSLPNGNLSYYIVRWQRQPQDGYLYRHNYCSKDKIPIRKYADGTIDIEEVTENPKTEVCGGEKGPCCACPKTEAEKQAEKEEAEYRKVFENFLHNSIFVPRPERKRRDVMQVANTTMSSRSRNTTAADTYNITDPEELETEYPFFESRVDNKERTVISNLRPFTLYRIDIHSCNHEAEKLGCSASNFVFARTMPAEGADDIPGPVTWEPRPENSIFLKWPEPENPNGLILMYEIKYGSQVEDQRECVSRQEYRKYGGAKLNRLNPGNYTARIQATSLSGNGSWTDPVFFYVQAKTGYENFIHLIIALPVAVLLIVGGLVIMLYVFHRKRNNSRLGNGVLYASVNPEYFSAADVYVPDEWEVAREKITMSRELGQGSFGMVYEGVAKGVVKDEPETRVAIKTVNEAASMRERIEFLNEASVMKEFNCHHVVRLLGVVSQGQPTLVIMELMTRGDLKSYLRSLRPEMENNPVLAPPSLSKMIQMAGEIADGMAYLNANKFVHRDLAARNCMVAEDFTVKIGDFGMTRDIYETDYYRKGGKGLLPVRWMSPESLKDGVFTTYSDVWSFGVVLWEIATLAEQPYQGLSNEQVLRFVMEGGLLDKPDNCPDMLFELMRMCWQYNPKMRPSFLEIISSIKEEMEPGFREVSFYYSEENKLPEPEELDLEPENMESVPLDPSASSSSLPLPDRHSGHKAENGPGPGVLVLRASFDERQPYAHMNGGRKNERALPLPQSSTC

Row | SMILES | GI50 [1] [nM] | pIC50 [2, 3] | pIC50 [2, 4] | pIC50 (IGF1R in MCF-7 cells)
1 | CC(C)(C)c1ccc(N2C(=O)N(Cc3ccnc(N)n3)C(C)(C)C2=O)cc1 [Example 1 Stage f), 1-[(2-aminopyrimidin-4-yl)methyl]-3-(4-tert-butylphenyl)-5,5-dimethylimidazolidine-2,4-dione] | > 100 | 7.00 to 8.00 | 7.00 to 8.00 | –
2 | CC(C)(C)c1ccc(N2C(=O)N(Cc3ccnc(Nc4cccnc4)n3)C(C)(C)C2=O)cc1 [Example 1, 3-(4-tert-butylphenyl)-5,5-dimethyl-1-[2-(pyridin-3-ylamino)pyrimidin-4-ylmethyl]imidazolidine-2,4-dione] | < 10 | 7.00 to 8.00 | > 8.00 | > 8.00
3 | CN(C)C(=O)Nc1nccc(CN2C(=O)N(c3ccc(C(C)(C)C)cc3)C(=O)C2(C)C)n1 [Example 2, 3-(4-{[3-(4-tert-butylphenyl)-5,5-dimethyl-2,4-dioxoimidazolidin-1-yl]methyl}pyrimidin-2-yl)-1,1-dimethylurea] | > 100 | < 7.00 | < 7.00 | –
4 | CN(C)C(=O)Nc1cc(CN2C(=O)N(c3ccc4c(c3)N(C(=O)CNC3CCCC3)CC4(C)C)C(=O)C2(C)C)ccn1 [Example 3, 3-[4-({3-[1-(N-cyclopentylglycyl)-3,3-dimethyl-2,3-dihydro-1H-indol-6-yl]-5,5-dimethyl-2,4-dioxoimidazolidin-1-yl}methyl)pyridin-2-yl]-1,1-dimethylurea] | 10 to 100 | < 7.00 | 7.00 to 8.00 | –
5 | CC1(C)CN(C(=O)CNC2CCCC2)c2cc(N3C(=O)N(Cc4ccnc(Nc5cccnc5)c4)C(C)(C)C3=O)ccc21 [Example 4, 3-[1-(N-cyclopentylglycyl)-3,3-dimethyl-2,3-dihydro-1H-indol-6-yl]-5,5-dimethyl-1-{[2-(pyridin-3-ylamino)pyridin-4-yl]methyl}imidazolidine-2,4-dione] | < 10 | 7.00 to 8.00 | 7.00 to 8.00 | –
6 | CC1(C)C(=O)N(c2ccc(OC(F)(F)F)c(NC(=O)[C@H](N)c3ccccc3)c2)C(=O)N1Cc1ccnc(Nc2cccnc2)c1 [Example 5a, (2R)-2-amino-N-[5-(4,4-dimethyl-2,5-dioxo-3-{[2-(pyridin-3-ylamino)pyridin-4-yl]methyl}imidazolidin-1-yl)-2-(trifluoromethoxy)phenyl]-2-phenylacetamide] | < 10 | 7.00 to 8.00 | 7.00 to 8.00 | –
7 | CN(C)C(=O)Nc1cc(CN2C(=O)N(c3ccc(OC(F)(F)F)c(NC(=O)[C@H](N)c4ccccc4)c3)C(=O)C2(C)C)ccn1 [Example 6a, (2R)-2-amino-N-{5-[3-({2-[(dimethylcarbamoyl)amino]pyridin-4-yl}methyl)-4,4-dimethyl-2,5-dioxoimidazolidin-1-yl]-2-(trifluoromethoxy)phenyl}-2-phenylacetamide] | < 10 | < 7.00 | 7.00 to 8.00 | –
8 | CC(C)(C)c1ccc(N2C(=O)N(Cc3ccnc(Nc4cncnc4)c3)C(C)(C)C2=O)cc1 [Example 7, 3-(4-tert-butylphenyl)-5,5-dimethyl-1-{[2-(pyrimidin-5-ylamino)pyridin-4-yl]methyl}imidazolidine-2,4-dione] | > 100 | 7.00 to 8.00 | 7.00 to 8.00 | –
9 | CC(C)(C)c1ccc(N2C(=O)N(Cc3ccnc(Nc4cncnc4)n3)C(C)(C)C2=O)cc1 [Example 8, 3-(4-tert-butylphenyl)-5,5-dimethyl-1-{[2-(pyrimidin-5-ylamino)pyrimidin-4-yl]methyl}imidazolidine-2,4-dione] | < 10 | 7.00 to 8.00 | > 8.00 | > 8.00
10 | CC(C)(C)c1ccc(N2C(=O)N(Cc3ccnc(NC(=O)NCCCN4CCCC4)c3)C(C)(C)C2=O)cc1 [Example 9, 1-(4-{[3-(4-tert-butylphenyl)-5,5-dimethyl-2,4-dioxoimidazolidin-1-yl]methyl}pyridin-2-yl)-3-(3-pyrrolidin-1-ylpropyl)urea] | > 100 | 7.00 to 8.00 | 7.00 to 8.00 | –
11 | CC(C)(C)c1ccc(N2C(=O)N(Cc3ccnc(NC(=O)NC4CCCC4)c3)C(C)(C)C2=O)cc1 [Example 10, 1-(4-{[3-(4-tert-butylphenyl)-5,5-dimethyl-2,4-dioxoimidazolidin-1-yl]methyl}pyridin-2-yl)-3-cyclopentylurea] | > 100 | 7.00 to 8.00 | 7.00 to 8.00 | –
12 | CC(C)(C)c1ccc(N2C(=O)N(Cc3ccnc(NC(=O)NCCN4CCCC4)c3)C(C)(C)C2=O)cc1 [Example 11, 1-(4-{[3-(4-tert-butylphenyl)-5,5-dimethyl-2,4-dioxoimidazolidin-1-yl]methyl}pyridin-2-yl)-3-(2-pyrrolidin-1-ylethyl)urea] | > 100 | 7.00 to 8.00 | 7.00 to 8.00 | –
13 | CC(C)(C)c1ccc(N2C(=O)N(Cc3ccnc(NC(=O)NCCCCN4CCCC4)c3)C(C)(C)C2=O)cc1 [Example 12, 1-(4-{[3-(4-tert-butylphenyl)-5,5-dimethyl-2,4-dioxoimidazolidin-1-yl]methyl}pyridin-2-yl)-3-(4-pyrrolidin-1-ylbutyl)urea] | > 100 | 7.00 to 8.00 | > 8.00 | –
14 | CC(C)(C)c1ccc(N2C(=O)N(Cc3ccnc(NC(=O)NC4CCCCC4)c3)C(C)(C)C2=O)cc1 [Example 16, 1-(4-{[3-(4-tert-butylphenyl)-5,5-dimethyl-2,4-dioxoimidazolidin-1-yl]methyl}pyridin-2-yl)-3-cyclohexylurea] | > 100 | < 7.00 | 7.00 to 8.00 | –
15 | CC(C)(C)c1ccc(N2C(=O)N(Cc3ccnc(NC(=O)N4CCOCC4)c3)C(C)(C)C2=O)cc1 [Example 20, N-(4-{[3-(4-tert-butylphenyl)-5,5-dimethyl-2,4-dioxoimidazolidin-1-yl]methyl}pyridin-2-yl)morpholine-4-carboxamide] | > 100 | 7.00 to 8.00 | > 8.00 | –
16 | CCCCN(C)C(=O)Nc1cc(CN2C(=O)N(c3ccc(C(C)(C)C)cc3)C(=O)C2(C)C)ccn1 [Example 27, 1-butyl-3-(4-{[3-(4-tert-butylphenyl)-5,5-dimethyl-2,4-dioxoimidazolidin-1-yl]methyl}pyridin-2-yl)-1-methylurea] | > 100 | 7.00 to 8.00 | 7.00 to 8.00 | –
17 | CC(C)(C)c1ccc(N2C(=O)N(Cc3ccnc(Nc4cncc(F)c4)c3)C(C)(C)C2=O)cc1 [Example 31A, 3-(4-tert-butylphenyl)-1-({2-[(5-fluoropyridin-3-yl)amino]pyridin-4-yl}methyl)-5,5-dimethylimidazolidine-2,4-dione] | > 100 | 7.00 to 8.00 | 7.00 to 8.00 | –
